PMC9933440 (Crystal Growth & Design, 2022)
In brackets after ≈: the same amount, converted by molar mass. Several values for one entry are separate records, joined by “and”; a condition that tells them apart may be missing. Equal values may be shown once. Read-outs that look alike come from different tables or passages of the source. Blank lines part the entries; values can stand above or below the molecule they belong to.

Experiments:
[1] = pKa (base) – pKa (acid)
[2] = cited from earlier work
[3] = cited from earlier work; remark: listed apart in the source
[4] = cited from earlier work; remark: listed apart in the source
[5] = Solubility experiments in sodium phosphate buffer pH 6.5, 37 °C (HPLC); settings: for dissolved MEL / dissolved PRM: highest dissolved concentration, sodium phosphate buffer pH 6.5, 37 °C
Experimental: Solubility experiments were conducted in sodium phosphate buffer solutions at pH 6.5 and 37 °C to simulate intestinal physiological conditions. For each experiment, an excess crystalline solid was sieved through a 300 μm sieve and introduced into a flask with a screw top containing 100 mL of the medium. The solution was stirred at 200 rpm using a magnetic stir bar for 48 h to reach the equilibrium state. […] After each sampling, the volume of the liquid removed from the suspension was not compensated. The withdrawn suspension was filtered through 0.2 μm nylon filters and diluted prior to high-performance liquid chromatography (HPLC) analysis. The solubility experiment for each crystal form was repeated in triplicate. After the last sample collection, the remaining solid material in the suspension was filtered, dried, and characterized by IR and PXRD.
A C18 HPLC column (YMC-Pack ODS-A column, 4.6 mm × 250 mm, 5 μm) with a flow rate of 1 mL min^–1 was employed, and the column temperature was set at 25 °C. The binary mobile phase consisted of acetonitrile and sodium phosphate buffer (pH 6.5) in a volume ratio of 25:75. The samples were diluted appropriately with the mobile phase, and the absorbance was measured at 347 nm.

[6] = cited from earlier work; remark: listed apart in the source

ΔpKa for MEL ([1]; hydroxyl group of MEL): 8.61 | ΔpKa for PRM ([1]; hydroxyl group of PRM): 7.84
SMILES: CN(C)c1ccncc1 [4DMP, 4-dimethylaminopyridine]

SMILES: CN1C(C(=O)Nc2ccccn2)=C(O)c2sc(Cl)cc2S1(=O)=O.CNC(=O)NC [LRM 1,3-dimethyl urea]
IDR vs parent API (fold) ([2]; pH 1.2): 28 x | IDR vs parent API (fold) ([2]; pH 7.4): 19 x | bioavailability vs parent API (fold) [3]: 2.5 x

SMILES: CN1C(C(=O)Nc2ccccn2)=C(O)c2sc(Cl)cc2S1(=O)=O.O=C(O)c1ccc(O)cc1 [LRM 4-hydroxy benzoic acid]
solubility vs parent API (fold) ([4]; in H2O): improved solubility in H2O (x 1.6–6.9)

SMILES: CN1C(C(=O)Nc2ccccn2)=C(O)c2sc(Cl)cc2S1(=O)=O.Cl [LRM HCl]
dissolution vs parent API (fold) ([2]; pH 7): improved dissolution at pH 7 (x 1.3–1.6)

SMILES: CN1C(C(=O)Nc2ccccn2)=C(O)c2sc(Cl)cc2S1(=O)=O.N [LRM NH3]
dissolution vs parent API (fold) ([2]; pH 7): improved dissolution at pH 7 (x 1.3–1.6)

SMILES: CN1C(C(=O)Nc2ccccn2)=C(O)c2sc(Cl)cc2S1(=O)=O.O=C(O)c1ccccc1 [LRM benzoic acid]
solubility vs parent API ([4]; in H2O): no solubility advantage in H2O

SMILES: CN1C(C(=O)Nc2ccccn2)=C(O)c2sc(Cl)cc2S1(=O)=O.O=C(O)CCCC(=O)O [LRM glutaric acid]
solubility vs parent API ([4]; in H2O): no solubility advantage in H2O

SMILES: CN1C(C(=O)Nc2ccccn2)=C(O)c2sc(Cl)cc2S1(=O)=O.CS(=O)(=O)O [LRM methanesulfonic acid]
dissolution vs parent API (fold) ([2]; pH 7): improved dissolution at pH 7 (x 1.3–1.6)

SMILES: CN1C(C(=O)Nc2ccccn2)=C(O)c2sc(Cl)cc2S1(=O)=O.O=C(O)c1ccccc1O [LRM salicylic acid]
solubility vs parent API ([4]; in H2O): no solubility advantage in H2O

SMILES: Cc1cnc(NC(=O)C2=C(O)c3ccccc3S(=O)(=O)N2C)s1.O=C(O)c1ccc(O)cc1 [MEL 4-hydroxybenzoic acid]
bioavailability vs parent API (fold) [3]: 1.1–1.6 x | solubility vs parent API ([4]; pH 6.5): higher solubility

SMILES: CC(=O)Oc1ccccc1C(=O)O.Cc1cnc(NC(=O)C2=C(O)c3ccccc3S(=O)(=O)N2C)s1 [MEL Aspirin]
bioavailability vs parent API (fold) [3]: 4.4 x | solubility vs parent API (fold) ([4]; pH 7.4): 44 x

SMILES: Cc1cnc(NC(=O)C2=C([O-])c3ccccc3S(=O)(=O)N2C)s1.O.[K+] [MEL KOH H2O]
dissolution behavior vs parent API ([2]; pH 5.6): improved dissolution behavior | bioavailability vs parent API ([3]; in vivo): no bioavailability advantage

SMILES: Cc1cnc(NC(=O)C2=C(O)c3ccccc3S(=O)(=O)N2C)s1.N=C(N)NCCCC(N)C(=O)O [MEL arginine]
dissolution behavior vs parent API ([2]; pH 7.5): improved dissolution behavior

SMILES: Cc1cnc(NC(=O)C2=C(O)c3ccccc3S(=O)(=O)N2C)s1.NC(CS)C(=O)O [MEL cysteine]
dissolution behavior vs parent API ([2]; pH 7.5): improved dissolution behavior at pH 7.5

SMILES: Cc1cnc(NC(=O)C2=C(O)c3ccccc3S(=O)(=O)N2C)s1.O=C(O)/C=C/C(=O)O [MEL fumaric acid]
bioavailability vs parent API [3]: no bioavailability advantage

SMILES: Cc1cnc(NC(=O)C2=C(O)c3ccccc3S(=O)(=O)N2C)s1.NCC(=O)O [MEL glycine]
dissolution behavior vs parent API ([2]; pH 7.5): improved dissolution behavior at pH 7.5

SMILES: Cc1cnc(NC(=O)C2=C(O)c3ccccc3S(=O)(=O)N2C)s1.O=C(O)CO [MEL glycolic acid]
bioavailability vs parent API [3]: no bioavailability advantage

SMILES: Cc1cnc(NC(=O)C2=C(O)c3ccccc3S(=O)(=O)N2C)s1.O=C(O)CCc1ccccc1 [MEL hydrocinnamic acid]
bioavailability vs parent API [3]: no bioavailability advantage

SMILES: Cc1cnc(NC(=O)C2=C(O)c3ccccc3S(=O)(=O)N2C)s1.Nc1ccncc1 [MEL-4AP]
dissolved MEL [5]: 0.68 ± 0.05 mg mL^–1 | dissolved MEL, times higher than that of the pure MEL ([5]; pH 6.5, 37 °C): 8.1 times | time for which the supersaturation state is maintained ([5]; pH 6.5, 37 °C): > 300 min | apparent solubility compared with the pure API ([5]; pH 6.5, this work): higher solubility at pH 6.5

SMILES: CN(C)c1ccncc1.Cc1cnc(NC(=O)C2=C(O)c3ccccc3S(=O)(=O)N2C)s1 [MEL-4DMP]
dissolved MEL [5]: 0.85 ± 0.02 mg mL^–1 | time for which the supersaturation state is maintained ([5]; pH 6.5): more than 200 min | dissolved MEL, times higher than that of the pure MEL ([5]; pH 6.5, 37 °C): 10.2 times

SMILES: CN1C(C(=O)Nc2ccccn2)=C(O)c2ccccc2S1(=O)=O.OCCNCCO [PRM diethanolamine]
bioavailability vs parent API [3]: higher bioavailability

SMILES: CN1C(C(=O)Nc2ccccn2)=C(O)c2ccccc2S1(=O)=O.NCCO [PRM ethanolamine]
bioavailability vs parent API [3]: higher bioavailability

SMILES: CN1C(C(=O)Nc2ccccn2)=C(O)c2ccccc2S1(=O)=O.Cc1nc(-c2ccc(OCC(C)C)c(C#N)c2)sc1C(=O)O [PRM febuxostat]
dissolution vs parent API (fold) ([2]; pH 6.8): 2.8 x

SMILES: CN1C(C(=O)Nc2ccccn2)=C(O)c2ccccc2S1(=O)=O.COc1cc(/C=C/C(=O)O)ccc1O [PRM ferulic acid]
IDR vs parent API (fold) ([2]; pH 2): 1.7 x

SMILES: CN1C(C(=O)Nc2ccccn2)=C(O)c2ccccc2S1(=O)=O.NS(=O)(=O)c1cc(C(=O)O)c(NCc2ccco2)cc1Cl [PRM furosemide]
stability under accelerated aging [6]: good stability under accelerated aging | thermal stability [6]: good thermal stability

SMILES: CN1C(C(=O)Nc2ccccn2)=C(O)c2ccccc2S1(=O)=O.COC(=O)c1ccc(O)cc1 [PRM methylparaben]
IDR vs parent API ([2]; pH 1.2): no solubility and IDR advantages | dissolution rates in the sink condition ([2]; pH 1.2): superior dissolution rates

SMILES: CN1C(C(=O)Nc2ccccn2)=C(O)c2ccccc2S1(=O)=O.OCCN(CCO)CCO [PRM triethanolamine]
bioavailability vs parent API [3]: higher bioavailability

SMILES: CN1C(C(=O)Nc2ccccn2)=C(O)c2ccccc2S1(=O)=O.NC(N)=O [PRM urea]
solubility vs parent API [4]: no solubility advantage

SMILES: CN1C(C(=O)Nc2ccccn2)=C(O)c2ccccc2S1(=O)=O.COc1cc(C=O)ccc1O [PRM vanillin]
IDR vs parent API ([2]; pH 1.2): no solubility and IDR advantages | dissolution rates in the sink condition ([2]; pH 1.2): superior dissolution rates | solubility vs parent API ([4]; pH 1.2): no solubility and IDR advantages

SMILES: CN1C(C(=O)Nc2ccccn2)=C(O)c2ccccc2S1(=O)=O [PRM, Piroxicam]
dissolved PRM [5]: 0.39 mg mL^–1 and 0.39 ± 0.01 mg mL^–1 | time to highest solubility / maximum dissolved concentration / equilibrium ([5]; pH 6.5): 60 min | solubility thermodynamic at 48 h ([5]; pH 6.5, aqueous buffer): 140 µg/mL (≈ 423 µM)

SMILES: CN1C(C(=O)Nc2ccccn2)=C(O)c2ccccc2S1(=O)=O.Nc1ccncc1 [PRM-4AP]
dissolved PRM [5]: 1.08 mg mL^–1 and 1.08 ± 0.02 mg mL^–1 | dissolved PRM, times higher than that of the anhydrous PRM ([5]; pH 6.5, 37 °C): 2.8 times | apparent solubility compared with the pure API ([5]; pH 6.5, this work): higher solubility

SMILES: CN(C)c1ccncc1.CN1C(C(=O)Nc2ccccn2)=C(O)c2ccccc2S1(=O)=O [PRM-4DMP]
dissolved PRM [5]: 1.07 mg mL^–1 and 1.07 ± 0.01 mg mL^–1 | apparent solubility compared with the pure API ([5]; pH 6.5): higher solubility | dissolved PRM, times higher than that of the anhydrous PRM ([5]; pH 6.5, 37 °C): 2.8 times

SMILES: C1CNCCN1.CN1C(C(=O)Nc2ccccn2)=C(O)c2ccccc2S1(=O)=O.CN1C(C(=O)Nc2ccccn2)=C(O)c2ccccc2S1(=O)=O [PRM-PPZ]
dissolved PRM [5]: 0.43 mg mL^–1 and 0.43 ± 0.04 mg mL^–1 | apparent solubility compared with the pure API ([5]; pH 6.5): higher solubility | dissolved PRM, times higher than that of the anhydrous PRM ([5]; pH 6.5, 37 °C): 1.1 times

SMILES: CN1C(C(=O)Nc2ccccn2)=C(O)c2sccc2S1(=O)=O.Cl [TNM HCl]
IDR vs parent API ([2]; pH 7): no solubility and IDR advantages at pH 7 | solubility vs parent API ([4]; pH 7): no solubility and IDR advantages at pH 7

SMILES: CN1C(C(=O)Nc2ccccn2)=C(O)c2sccc2S1(=O)=O.O=C(O)c1ccccc1 [TNM benzoic acid]
IDR vs parent API (fold) ([2]; pH 7): 2 x | solubility vs parent API ([4]; pH 7): no solubility advantage

SMILES: CN1C(C(=O)Nc2ccccn2)=C(O)c2sccc2S1(=O)=O.O=C(O)CO [TNM glycolic acid]
IDR vs parent API ([2]; pH 4.5): no IDR advantage at pH 4.5 and 6.8 | IDR vs parent API ([2]; pH 6.8): no IDR advantage at pH 4.5 and 6.8

SMILES: CN1C(C(=O)Nc2ccccn2)=C(O)c2sccc2S1(=O)=O.CS(=O)(=O)O [TNM methanesulfonic acid]
IDR vs parent API ([2]; pH 7): no solubility and IDR advantages at pH 7 | solubility vs parent API ([4]; pH 7): no solubility and IDR advantages at pH 7

SMILES: C1CNCCN1.CN1C(C(=O)Nc2ccccn2)=C(O)c2sccc2S1(=O)=O [TNM piperazine]
IDR vs parent API (fold) ([2]; pH 7): 2.5 x | solubility vs parent API (fold) ([4]; pH 7): 5.5 x

SMILES: CN1C(C(=O)Nc2ccccn2)=C(O)c2sccc2S1(=O)=O.Oc1cccc(O)c1O [TNM pyrogallol]
IDR vs parent API (fold) ([2]; pH 7): 2.4–4.2 x | solubility vs parent API (fold) ([4]; pH 7): 5.8–10.1 x

SMILES: CN1C(C(=O)Nc2ccccn2)=C(O)c2sccc2S1(=O)=O.O=C1NS(=O)(=O)c2ccccc21 [TNM saccharin]
IDR vs parent API ([2]; pH 4.5): no IDR advantage at pH 4.5 and 6.8 | IDR vs parent API ([2]; pH 6.8): no IDR advantage at pH 4.5 and 6.8

SMILES: CN1C(C(=O)Nc2ccccn2)=C(O)c2sccc2S1(=O)=O.O=C(O)c1ccccc1O [TNM salicylic acid]
IDR vs parent API ([2]; pH 4.5): no IDR advantage at pH 4.5 and 6.8 | IDR vs parent API ([2]; pH 6.8): no IDR advantage at pH 4.5 and 6.8 | IDR vs parent API ([2]; pH 7): no solubility and IDR advantages at pH 7 | solubility vs parent API ([4]; pH 7): no solubility and IDR advantages at pH 7

SMILES: CN1C(C(=O)Nc2ccccn2)=C(O)c2sccc2S1(=O)=O.O=C(O)CCC(=O)O [TNM succinic acid]
IDR vs parent API ([2]; pH 4.5): no IDR advantage at pH 4.5 and 6.8 | IDR vs parent API ([2]; pH 6.8): no IDR advantage at pH 4.5 and 6.8
